Test results published in ChEMBL document CHEMBL3885881, “DrugMatrix”.

Organism: Rattus norvegicus
Assay: DrugMatrix - Regimen: Daily Repeat
Type: toxicity, organism-based, Sprague-Dawley
Set-up: regimen Daily Repeat, gender Male, age 6-8 weeks
Conditions: in vivo, po, route oral GAVAGE, vehicle 100 % WATER; for ABSOLUTE BASOPHIL / ABSOLUTE EOSINOPHIL / ABSOLUTE LYMPHOCYTE / ABSOLUTE MONOCYTE / ABSOLUTE SEGMENTED NEUTROPHIL / BASOPHIL / EOSINOPHIL / ERYTHROCYTE COUNT / HEMATOCRIT / HEMOGLOBIN / LEUKOCYTE COUNT / LYMPHOCYTE / MEAN CORPUSCULAR HEMOGLOBIN / MEAN CORPUSCULAR HEMOGLOBIN CONCENTRATION / NEUTROPHIL / NUCLEATED RED BLOOD CELLS / PLATELET COUNT: tissue Blood; for ALANINE AMINOTRANSFERASE / ALBUMIN / ALKALINE PHOSPHATASE / ASPARTATE AMINOTRANSFERASE / BLOOD UREA NITROGEN / CARBON DIOXIDE / CHLORIDE / CHOLESTEROL / CREATINE PHOSPHOKINASE / CREATININE / GLUCOSE / LACTATE DEHYDROGENASE / LIPASE / PHOSPHORUS / POTASSIUM / SODIUM / TOTAL BILIRUBIN / TOTAL PROTEIN / URIC ACID: tissue Plasma
[1] = 94 mg/kg, 120 h, dose level High, time 5 day
[2] = […], 72 h, dose 2.3 mg/Kg, dose level Low, time 3 day
[3] = […], 120 h, dose 2.3 mg/Kg, dose level Low, time 5 day

## CN1[C@@H]2CC[C@H]1C[C@@H](OC(=O)C(CO)c1ccccc1)C2 (stereo partly drawn) [ATROPINE]
[1]
  ABSOLUTE BASOPHIL: 0 CELLS/uL
  ABSOLUTE EOSINOPHIL: 26.33 CELLS/uL
  ABSOLUTE LYMPHOCYTE: 8136 CELLS/uL
  ABSOLUTE MONOCYTE: 82.33 CELLS/uL
  ABSOLUTE SEGMENTED NEUTROPHIL: 555.33 CELLS/uL
  BASOPHIL: 0%
  EOSINOPHIL: 0.33%
  ERYTHROCYTE COUNT: 5.33 x10E6/uL
  HEMATOCRIT: 35.2%
  HEMOGLOBIN: 13.4 G/DL
  LEUKOCYTE COUNT: 8.8 x10E3/uL
  LYMPHOCYTE: 92.33%
  MEAN CORPUSCULAR HEMOGLOBIN: 25.13 pg
  MEAN CORPUSCULAR HEMOGLOBIN CONCENTRATION: 38.07 G/DL
  NEUTROPHIL: 6.33%
  NUCLEATED RED BLOOD CELLS: 0.33 /100WBC
  PLATELET COUNT: 1133.67 x10E3/uL
  ALANINE AMINOTRANSFERASE: 73.67 u/L
  ALBUMIN: 4.13 G/DL
  ALKALINE PHOSPHATASE: 335 u/L
  ASPARTATE AMINOTRANSFERASE: 106.67 u/L
  BLOOD UREA NITROGEN: 13 mg/dL
  CARBON DIOXIDE: 32 mmol/L
  CHLORIDE: 99.67 MEQ/L
  CHOLESTEROL: 52.33 mg/dL
  CREATINE PHOSPHOKINASE: 367.67 u/L
  CREATININE: 0.1 mg/dL
  GLUCOSE: 155 mg/dL
  LACTATE DEHYDROGENASE: 214.33 u/L
  LIPASE: 11 u/L
  PHOSPHORUS: 9.67 mg/dL
  POTASSIUM: 5.56 MEQ/L
  SODIUM: 143.2 MEQ/L
  TOTAL BILIRUBIN: 0.17 mg/dL
  TOTAL PROTEIN: 6.03 G/DL
  URIC ACID: 0.37 mg/dL
[2]
  ABSOLUTE BASOPHIL: 0 CELLS/uL
  ABSOLUTE EOSINOPHIL: 0 CELLS/uL
  ABSOLUTE LYMPHOCYTE: 12169.33 CELLS/uL
  ABSOLUTE MONOCYTE: 203.67 CELLS/uL
  ABSOLUTE SEGMENTED NEUTROPHIL: 1660.33 CELLS/uL
  BASOPHIL: 0%
  EOSINOPHIL: 0%
  ERYTHROCYTE COUNT: 5.43 x10E6/uL
  HEMATOCRIT: 34.63%
  HEMOGLOBIN: 13.57 G/DL
  LEUKOCYTE COUNT: 14.03 x10E3/uL
  LYMPHOCYTE: 88%
  MEAN CORPUSCULAR HEMOGLOBIN: 25 pg
  MEAN CORPUSCULAR HEMOGLOBIN CONCENTRATION: 39.17 G/DL
  NEUTROPHIL: 10.67%
  NUCLEATED RED BLOOD CELLS: 0 /100WBC
  PLATELET COUNT: 1077.33 x10E3/uL
  ALANINE AMINOTRANSFERASE: 49 u/L
  ALBUMIN: 3.93 G/DL
  ALKALINE PHOSPHATASE: 305.33 u/L
  ASPARTATE AMINOTRANSFERASE: 82.67 u/L
  BLOOD UREA NITROGEN: 10.67 mg/dL
  CARBON DIOXIDE: 28.67 mmol/L
  CHLORIDE: 99.33 MEQ/L
  CHOLESTEROL: 68.67 mg/dL
  CREATINE PHOSPHOKINASE: 256.67 u/L
  CREATININE: 0.1 mg/dL
  GLUCOSE: 142.67 mg/dL
  LACTATE DEHYDROGENASE: 161 u/L
  LIPASE: 9.33 u/L
  PHOSPHORUS: 10.27 mg/dL
  POTASSIUM: 6.48 MEQ/L
  SODIUM: 141.6 MEQ/L
  TOTAL BILIRUBIN: 0.27 mg/dL
  TOTAL PROTEIN: 5.63 G/DL
  URIC ACID: 0.97 mg/dL
[3]
  ABSOLUTE BASOPHIL: 0 CELLS/uL
  ABSOLUTE EOSINOPHIL: 0 CELLS/uL
  ABSOLUTE LYMPHOCYTE: 8930.67 CELLS/uL
  ABSOLUTE MONOCYTE: 135.33 CELLS/uL
  ABSOLUTE SEGMENTED NEUTROPHIL: 600.67 CELLS/uL
  BASOPHIL: 0%
  EOSINOPHIL: 0%
  ERYTHROCYTE COUNT: 5.39 x10E6/uL
  HEMATOCRIT: 35.13%
  HEMOGLOBIN: 13.5 G/DL
  LEUKOCYTE COUNT: 9.67 x10E3/uL
  LYMPHOCYTE: 93%
  MEAN CORPUSCULAR HEMOGLOBIN: 25.07 pg
  MEAN CORPUSCULAR HEMOGLOBIN CONCENTRATION: 38.43 G/DL
  NEUTROPHIL: 6%
  NUCLEATED RED BLOOD CELLS: 0 /100WBC
  PLATELET COUNT: 1298.67 x10E3/uL
  ALANINE AMINOTRANSFERASE: 55.33 u/L
  ALBUMIN: 4.07 G/DL
  ALKALINE PHOSPHATASE: 274 u/L
  ASPARTATE AMINOTRANSFERASE: 83 u/L
  BLOOD UREA NITROGEN: 13.67 mg/dL
  CARBON DIOXIDE: 34.67 mmol/L
  CHLORIDE: 98.33 MEQ/L
  CHOLESTEROL: 64.67 mg/dL
  CREATINE PHOSPHOKINASE: 318.67 u/L
  CREATININE: 0.12 mg/dL
  GLUCOSE: 137.67 mg/dL
  LACTATE DEHYDROGENASE: 169.67 u/L
  LIPASE: 12.33 u/L
  PHOSPHORUS: 10 mg/dL
  POTASSIUM: 5.77 MEQ/L
  SODIUM: 144.13 MEQ/L
  TOTAL BILIRUBIN: 0.2 mg/dL
  TOTAL PROTEIN: 6.23 G/DL
  URIC ACID: 0.37 mg/dL
